Columns and labels:
BI-2493 [1] = compound: T1, C[C@H]1CNCCN1c1nccc(-c2noc3c2CCC[C@@]32CCCc3sc(N)c(C#N)c32)n1 [BI-2493]; test: 1 - AUC of viability dose-response curve (sensitivity) (fraction); higher = more sensitive; details: 5 days
Experimental: (§1)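 PRISM pooled barcoded cancer cell line viability screen (Broad Institute) with BI-2493 at 8 doses in threefold dilutions from 0.00457 to 10 µmol/L, 5-day treatment; curves fitted per cell line. IC50 is undefined (placeholder) for resistant lines. AUC is capped at 1, and sensitivity is reported as 1 − AUC.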

BI-2493 [2] = compound: T1, BI-2493; details: 5 days
Experimental: as §1

HT29_LARGE_INTESTINE
1 - AUC of viability dose-response curve (BI-2493 [1]): 0.15 | IC50 of cell viability (BI-2493 [2]): 5.08 µM

HT55_LARGE_INTESTINE
1 - AUC of viability dose-response curve (BI-2493 [1]): 0.195 | IC50 of cell viability (BI-2493 [2]): 4.03 µM

HT115_LARGE_INTESTINE
1 - AUC of viability dose-response curve (BI-2493 [1]): 0.229 | IC50 of cell viability (BI-2493 [2]): 2.29 µM

HT144_SKIN
1 - AUC of viability dose-response curve (BI-2493 [1]): 0.091 | IC50 of cell viability (BI-2493 [2]): 5.71 µM

HT1080_SOFT_TISSUE
1 - AUC of viability dose-response curve (BI-2493 [1]): 0.209 | IC50 of cell viability (BI-2493 [2]): 3.19 µM

HT1197_URINARY_TRACT
1 - AUC of viability dose-response curve (BI-2493 [1]): 0.0777 | IC50 of cell viability (BI-2493 [2]): 4.69 µM

HT1376_URINARY_TRACT
1 - AUC of viability dose-response curve (BI-2493 [1]): 0.175 | IC50 of cell viability (BI-2493 [2]): 5.68 µM

HTMMT_ENDOMETRIUM
1 - AUC of viability dose-response curve (BI-2493 [1]): 0.0985 | IC50 of cell viability (BI-2493 [2]): 5.79 µM

HT_HAEMATOPOIETIC_AND_LYMPHOID_TISSUE
1 - AUC of viability dose-response curve (BI-2493 [1]): 0.104 | IC50 of cell viability (BI-2493 [2]): 6.79 µM

HUG1N_STOMACH
1 - AUC of viability dose-response curve (BI-2493 [1]): 0.393 | IC50 of cell viability (BI-2493 [2]): 0.544 µM

HUH1_LIVER
1 - AUC of viability dose-response curve (BI-2493 [1]): 0.0866 | IC50 of cell viability (BI-2493 [2]): 4.85 µM

HUH6_LIVER
1 - AUC of viability dose-response curve (BI-2493 [1]): 0.0714 | IC50 of cell viability (BI-2493 [2]): 6.78 µM

HUH7_LIVER
1 - AUC of viability dose-response curve (BI-2493 [1]): 0.0355 | IC50 of cell viability (BI-2493 [2]): 8.94 µM

HUH28_BILIARY_TRACT
1 - AUC of viability dose-response curve (BI-2493 [1]): 0.0149 | IC50 of cell viability (BI-2493 [2]): 9.21 µM

HUO9_BONE
1 - AUC of viability dose-response curve (BI-2493 [1]): 0.0106 | IC50 of cell viability (BI-2493 [2]): 9.56 µM

HUPT3_PANCREAS
1 - AUC of viability dose-response curve (BI-2493 [1]): 0.182 | IC50 of cell viability (BI-2493 [2]): 5.16 µM

HUPT4_PANCREAS
1 - AUC of viability dose-response curve (BI-2493 [1]): 0.147 | IC50 of cell viability (BI-2493 [2]): 3.9 µM

IALM_LUNG
1 - AUC of viability dose-response curve (BI-2493 [1]): 0.317 | IC50 of cell viability (BI-2493 [2]): 1.56 µM

ICC4_BILIARY_TRACT
1 - AUC of viability dose-response curve (BI-2493 [1]): 0.184 | IC50 of cell viability (BI-2493 [2]): 3.75 µM

ICC8_BILIARY_TRACT
1 - AUC of viability dose-response curve (BI-2493 [1]): 0.185 | IC50 of cell viability (BI-2493 [2]): 7.67 µM

ICC9_BILIARY_TRACT
1 - AUC of viability dose-response curve (BI-2493 [1]): 0.225 | IC50 of cell viability (BI-2493 [2]): 4.52 µM

ICC10_BILIARY_TRACT
1 - AUC of viability dose-response curve (BI-2493 [1]): 0.0142 | IC50 of cell viability (BI-2493 [2]): 9.23 µM

ICC12_BILIARY_TRACT
1 - AUC of viability dose-response curve (BI-2493 [1]): 0.0946 | IC50 of cell viability (BI-2493 [2]): 4.21 µM

ICC137_BILIARY_TRACT
1 - AUC of viability dose-response curve (BI-2493 [1]): 0.116 | IC50 of cell viability (BI-2493 [2]): 7.76 µM

IGR1_SKIN
1 - AUC of viability dose-response curve (BI-2493 [1]): 0.0813 | IC50 of cell viability (BI-2493 [2]): 7.02 µM

IGR37_SKIN
1 - AUC of viability dose-response curve (BI-2493 [1]): 0.111 | IC50 of cell viability (BI-2493 [2]): 8.82 µM

IGR39_SKIN
1 - AUC of viability dose-response curve (BI-2493 [1]): 0.0609 | IC50 of cell viability (BI-2493 [2]): 5.87 µM

IGROV1_OVARY
1 - AUC of viability dose-response curve (BI-2493 [1]): 0.205 | IC50 of cell viability (BI-2493 [2]): 8.03 µM

IHH4_THYROID
1 - AUC of viability dose-response curve (BI-2493 [1]): 0.0625 | IC50 of cell viability (BI-2493 [2]): 7.16 µM

IM95_STOMACH
1 - AUC of viability dose-response curve (BI-2493 [1]): 0.152 | IC50 of cell viability (BI-2493 [2]): 4.31 µM
